From ChEMBL document CHEMBL4364246, “Synthesis and biological evaluation of 5-aminoethyl benzophenanthridone derivatives as DNA topoisomerase IB inhibitors” (Eur J Med Chem, 2019)
Active and inactive are the calls of the source. No cut-off for these calls is given here.

How the values were obtained:
[1] = system: HCT-116; assay: cells; conditions: Homo sapiens, HCT-116, 72 h
[2] = target: T1, DNA topoisomerase 1 (Homo sapiens) (UniProt P11387); assay: Inhibition of recombinant TOP1 (unknown origin) using 3'-[32P]-labeled 117 bp DNA oligonucleotide assessed as TOP1-mediated DNA cleavage by measuring induction and stabilization of cleavage sites 17, 35 and 79 incubated for 20 mins by PAGE analysis
T1 sequence (whole entry): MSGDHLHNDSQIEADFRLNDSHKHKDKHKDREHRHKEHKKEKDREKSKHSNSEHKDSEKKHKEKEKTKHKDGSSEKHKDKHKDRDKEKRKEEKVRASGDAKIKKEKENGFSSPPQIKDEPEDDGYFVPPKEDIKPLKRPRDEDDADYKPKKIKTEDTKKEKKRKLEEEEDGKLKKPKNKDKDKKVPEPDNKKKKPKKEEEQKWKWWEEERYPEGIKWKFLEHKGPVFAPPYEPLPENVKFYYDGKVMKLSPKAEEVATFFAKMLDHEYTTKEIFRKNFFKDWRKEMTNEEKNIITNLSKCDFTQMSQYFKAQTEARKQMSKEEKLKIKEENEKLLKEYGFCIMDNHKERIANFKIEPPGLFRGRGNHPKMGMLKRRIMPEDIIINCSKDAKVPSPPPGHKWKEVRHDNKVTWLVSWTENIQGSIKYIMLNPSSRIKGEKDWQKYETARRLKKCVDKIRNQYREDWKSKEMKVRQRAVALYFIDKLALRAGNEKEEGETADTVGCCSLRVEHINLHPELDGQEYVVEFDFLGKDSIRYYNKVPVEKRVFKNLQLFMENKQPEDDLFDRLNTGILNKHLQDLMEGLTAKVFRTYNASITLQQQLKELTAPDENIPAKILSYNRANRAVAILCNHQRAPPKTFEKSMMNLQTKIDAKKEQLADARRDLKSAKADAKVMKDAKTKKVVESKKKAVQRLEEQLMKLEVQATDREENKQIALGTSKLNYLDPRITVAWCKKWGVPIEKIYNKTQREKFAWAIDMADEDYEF

[3] = system: MCF7; assay: cells; conditions: Homo sapiens, MCF7, 72 h
[4] = system: A549; assay: cells; conditions: Homo sapiens, A549, 72 h
[5] = system: DU-145; assay: cells; conditions: Homo sapiens, DU-145, 72 h
[6] = target: T1, DNA topoisomerase 1 (Homo sapiens); assay: Inhibition of recombinant TOP1 (unknown origin) using 3'-[32P]-labeled 117 bp DNA oligonucleotide assessed as […] TOP1-mediated DNA cleavage incubated for 20 mins by PAGE analysis relative to 1 uM CPT
[7] = target: T1, DNA topoisomerase 1 (Homo sapiens); assay: Inhibition of recombinant TOP1 (unknown origin) using 3'-[32P]-labeled 117 bp DNA oligonucleotide assessed as TOP1-mediated DNA cleavage by measuring induction and stabilization of cleavage sites 17, 35 and 79 at 1 uM incubated for 20 mins by PAGE analysis
[8] = target: T1, DNA topoisomerase 1 (Homo sapiens); assay: Inhibition of TOP1 in human HCT116 cells assessed as induction of DNA damage by measuring increase in gammaH2AX foci at 1 uM incubated for 3 hrs by DAPI staining based immunofluorescence microscopic method; type: cell-based
[9] = target: T1, DNA topoisomerase 1 (Homo sapiens); assay: Inhibition of TOP1 in human HCT116 cells assessed as induction of cellular TOP1cc formation at 25 uM incubated for 1 hr by chemiluminescence based assay; type: cell-based
[10] = target: T1, DNA topoisomerase 1 (Homo sapiens); assay: Inhibition of TOP1 in human HCT116 cells assessed as induction of cellular TOP1cc formation incubated for 1 hr by chemiluminescence based assay; type: cell-based

SMILES: COc1cc2c(=O)n(CCNS(=O)(=O)C3CC3)c3c4cc5c(cc4ccc3c2cc1OC)OCO5
- GI50 [1]: 5.2 µM
- Activity [2]: Dose-dependent effect
- GI50 [3]: 3 µM
- GI50 [4]: 4.3 µM
- GI50 [5]: 1.3 µM
- inhibition [6]: 50 to 75%

SMILES: COc1cc2c(=O)n(C)c3c4cc5c(cc4ccc3c2cc1OC)OCO5
- GI50 [1]: 74 µM
- GI50 [3]: 31 µM
- GI50 [4]: 39 µM
- GI50 [5]: 64 µM

SMILES: COc1cc2c(=O)n(CCN(C)S(=O)(=O)C3CC3)c3c4cc5c(cc4ccc3c2cc1OC)OCO5
- GI50 [1]: 7.9 µM
- GI50 [3]: 5.8 µM
- GI50 [4]: 15 µM
- GI50 [5]: 10 µM
- inhibition [6]: 20 to 50%

SMILES: COc1cc2c(=O)n(CCNS(=O)(=O)N3CCCC3)c3c4cc5c(cc4ccc3c2cc1OC)OCO5
- GI50 [1]: 34 µM
- GI50 [3]: 38 µM
- GI50 [4]: 61 µM
- GI50 [5]: 79 µM
- inhibition [6]: 0 to 50%

SMILES: COc1cc2c(=O)n(CCN(C)S(=O)(=O)N3CCOCC3)c3c4cc5c(cc4ccc3c2cc1OC)OCO5
- GI50 [1]: 40 µM
- GI50 [3]: 64 µM
- GI50 [4]: 35 µM
- GI50 [5]: 48 µM
- inhibition [6]: 20 to 50%

SMILES: COc1cc2c(=O)n(CCN(C)S(=O)(=O)C(F)(F)F)c3c4cc5c(cc4ccc3c2cc1OC)OCO5
- GI50 [1]: 86 µM
- GI50 [3]: 35 µM
- GI50 [4]: 42 µM
- GI50 [5]: 65 µM
- inhibition [6]: 0 to 50%

SMILES: COc1cc2c(=O)n(CCN(C)P(=O)(OC)OC)c3c4cc5c(cc4ccc3c2cc1OC)OCO5
- GI50 [1]: 9.2 µM
- Activity [2]: Dose-dependent effect
- GI50 [3]: 10 µM
- GI50 [4]: 14 µM
- GI50 [5]: 5.3 µM
- inhibition [6]: 50 to 75%

SMILES: COc1cc2c(=O)n(CCNS(=O)(=O)N(C)C)c3c4cc5c(cc4ccc3c2cc1OC)OCO5
- GI50 [1]: 30 µM
- GI50 [3]: 21 µM
- GI50 [4]: 35 µM
- GI50 [5]: 45 µM
- inhibition [6]: 20 to 50%

SMILES: COc1cc2c(=O)n(CCNP(=O)(OC)OC)c3c4cc5c(cc4ccc3c2cc1OC)OCO5
- GI50 [1]: 51 µM
- GI50 [3]: 48 µM
- GI50 [4]: 41 µM
- GI50 [5]: 39 µM
- inhibition [6]: 0 to 50%

SMILES: COc1cc2c(=O)n(CCN(C)S(=O)(=O)N(C)C)c3c4cc5c(cc4ccc3c2cc1OC)OCO5
- GI50 [1]: 0.96 µM
- GI50 [3]: 1.5 µM
- GI50 [4]: 7.9 µM
- GI50 [5]: 15 µM
- inhibition [6]: 20 to 50%

SMILES: COc1cc2c(=O)n(CCNS(=O)(=O)N3CCOCC3)c3c4cc5c(cc4ccc3c2cc1OC)OCO5
- GI50 [1]: 1.1 µM
- Activity [2]: Dose-dependent effect
- GI50 [3]: 0.89 µM
- GI50 [4]: 2.9 µM
- GI50 [5]: 1.6 µM
- inhibition [6]: 50 to 75%

SMILES: COc1cc2c(=O)n(CCN(C)P3(=O)OCCO3)c3c4cc5c(cc4ccc3c2cc1OC)OCO5
- Activity [2]: Dose-dependent effect
- inhibition [6]: 50 to 75%

SMILES: COc1cc2c3c(n(CCCNCCO)c(=O)c2cc1OC)-c1cc2c(cc1C3=O)OCO2
- Activity [7]: Active

SMILES: COc1cc2c(=O)n(CCNC(=O)C3CC3)c3c4cc5c(cc4ccc3c2cc1OC)OCO5
- GI50 [1]: 5.3 µM
- GI50 [3]: 2.2 µM
- GI50 [4]: 1.3 µM
- GI50 [5]: 7.8 µM
- inhibition [6]: 20 to 50%

SMILES: CC[C@@]1(O)C(=O)OCc2c1cc1n(c2=O)Cc2cc3ccccc3nc2-1
- Activity [7]: inactive
- Activity [8]: Active
- Activity [9]: Active
- Activity [10]: Dose-dependent effect

SMILES: COc1cc2c(=O)n(CCN(C)S(=O)(=O)N3CCCC3)c3c4cc5c(cc4ccc3c2cc1OC)OCO5
- GI50 [1]: 2.5 µM
- GI50 [3]: 3.8 µM
- GI50 [4]: 5.3 µM
- GI50 [5]: 3.1 µM
- inhibition [6]: 20 to 50%
